{
  "source": "patent US6469055B2",
  "about": "“Compositions and methods for treatment of neurological disorders and neurodegenerative diseases” (Massachusetts Institute of Technology, priority 1996, dated 2002)",
  "key": {"[1]": {"tested_on": "secreted APP (APPs)", "experiment": "APPs secretion from cultured neurons", "type": "cell-based", "settings": "DFP", "excerpt": "(§1) Treatment of cultured astroyctes with DFU (A) or of cultured neurons with DFP (B) promotes APPs secretion and decreases the levels of amyloidogenic APP holoprotein in cultured."}, "[2]": {"tested_on": "APP holoprotein", "experiment": "APP holoprotein in cultured neurons", "type": "cell-based", "settings": "DFP", "excerpt": "as §1"}, "[3]": {"tested_on": "secreted APP (APPs)", "experiment": "APPs secretion into the media of cultured cortical astrocytes, Western blot", "type": "cell-based, rat", "settings": "DFU or DFP 10^-9-10^-3 M, 1 h, cultured astrocytes", "method": "Astrocytes are isolated from cortices from postnatal rats. […] Media are changed twice weekly.\nTo detect secreted APP, culture media was collected after drug treatments and phenylmethylsulfonyl fluoride was added to a final concentration of 2 mM. The media samples were then applied to Sephadex PD-10 desalting columns (Pharmacia) and eluted with distilled water. Column eluates were frozen and dried by vacuum centrifugation. The lyophilized proteins were reconstituted in 25 μL water followed by 25 μL of 2X Laemmli gel loading buffer, and boiled for 5 min.\nAssays of PI hydrolysis are conducted as previously reported. Also, measurements of APPs are conducted as previously reported."}, "[4]": {"tested_on": "APP holoprotein", "experiment": "Cell-associated APP (APP holoprotein), Western blot, cultured cortical astrocytes", "settings": "DFU or DFP 10^-9-10^-3 M, 1 h, cultured astrocytes", "procedure": "Astrocytes are isolated from cortices from postnatal rats. […] In brief, dissected cortices were dissociated by trypsinization and trituration through a flame-polished Pasteur pipette. Cells were plated onto poly-L-lysine coated 35- or 100 mm culture dishes at densities of about 10-25 cells/mm^2. […] Media are changed twice weekly. […] Pharmacological manipulations are performed in serum-free media on 7-14 DIV confluent astrocytes.\nTo detect cell-associated protein (APP or GFAP), astrocytes from 35 mm dishes are scraped in lysis buffer (60 mM Tris/HCl, 4% SDS, 20% glycerol, 1 mM dithiothreitol), ultrasonicated and boiled for 5 min. The total amount of cell protein per dish, estimated using the bicinchoninic acid assay, is not altered by pharmacological treatments. Bromphenol blue (0.1%) is added to each sample and equal amounts of protein (˜75 mg/lane) are loaded on 10% SDS-polyacrylamide gels.\nThe amount of media or cell protein loaded for sodium dodecyl sulfate-polyacrylamide gel electrophoresis (10-20% SDS PAGE; Bio-Rad) was normalized for the amount of protein per sample. […] After 2×10 min rinses in TBST, the membranes were incubated in TBST containing an appropriate antibody. Monoclonal antibodies 22C11 and GFAP (both from Boehringer-Mannheim) were used to detect the N-terminus of APP and glial fibrillary acidic protein respectively; antisera R37 and R98 (gifts of Dr. F. Kametani, Tokyo Institute of Psychiatry) were used to detected the C-terminus and KPI motifs of APP respectively; antiserum C8 (gift of Dr. D. Selkoe, Women's Hospital, Harvard Medical School, Cambridge, Mass.) was used to detect the C-terminus of APP.\nAfter an overnight incubation, membranes were rinsed in TBST before being treated for 1h with a peroxidase-linked secondary antibody. After several rinses in TBST, protein bands were visualized on Kodak X-AR films by an enhanced chemiluminescence method (Amersham). Optical densities of the protein bands were quantitated by laser scanning densitometry (LKB, Bromma, Sweden), and normalized to the densities of those bands generated under control conditions."}, "[5]": {"tested_on": "APP holoprotein", "experiment": "Brain APP holoprotein in rats injected with p-chloroamphetamine (PCA) with or without aspirin", "type": "in vivo, rat", "settings": "rats injected with PCA; striatum or hippocampus", "excerpt": "Neuronal injury can stimulate prostaglandin production., and thereby stimulate APP overexpression. We injected rats with para-chloroamphetamine (PCA), a neurotoxin which causes a loss of serotoninergic terminals in the brain."}, "[6]": {"tested_on": "serotonin release", "experiment": "Serotonin release in the striatum by microdialysis", "type": "in vivo, rat", "settings": "rats, chronic treatment with PCA"}, "[7]": {"tested_on": "APP mRNA", "settings": "dibutyryl cAMP in serum-containing medium, rat glioma cells; cited from earlier work"}, "[8]": {"settings": "100-150 mg indomethacin, 6 months, mild or moderately impaired Alzheimer's disease patients; cited from earlier work"}},
  "note": "“Also recorded” adds a separate entry of the source.",
  "data": [
    {"smiles": "CC(C)OC1=C(c2ccc(S(C)(=O)=O)cc2)C(C)(C)OC1=O", "note": "[DFP, 5,5-dimethyl-3-isopropyloxy-4-(4′-methylsulfonylphenyl)-2(5H)-furanone]", "values": [
      {"measurement": "APPs secretion", "setting": "[1]", "value": "promotes"},
      {"measurement": "levels of amyloidogenic APP holoprotein", "setting": "[2]", "value": "decreases"},
      {"measurement": "secretion of soluble APPs", "setting": "[3]", "value": "increases"},
      {"measurement": "levels of cellular APP holoprotein", "setting": "[4]", "value": "decreases"}
    ]},
    {"smiles": "CC(N)Cc1ccc(Cl)cc1", "note": "(stereo not drawn) [PCA, para-chloroamphetamine]", "values": [
      {"measurement": "KPI-containing APP isoforms in brain tissue", "setting": "[5]", "value": "increased"},
      {"measurement": "brain APP holoprotein levels", "setting": "[5]", "value": "increased; also recorded: significant increases"},
      {"measurement": "serotonin release in the striatum", "setting": "[6]", "value": "compromised"}
    ]},
    {"smiles": "CCCC(=O)Nc1ncnc2c1ncn2[C@@H]1O[C@@H]2COP(=O)(O)O[C@H]2[C@H]1OC(=O)CCC", "note": "[dibutyryl cAMP]", "values": [
      {"measurement": "APP mRNA", "setting": "[7]", "value": "increased"}
    ]},
    {"smiles": "COc1ccc2c(c1)c(CC(=O)O)c(C)n2C(=O)c1ccc(Cl)cc1", "note": "[indomethacin]", "values": [
      {"measurement": "cognitive decline versus placebo, battery of cognitive tests", "setting": "[8]", "value": "appeared to protect"}
    ]}
  ]
}
